Converted amounts (≈) assume the structure as drawn.
How the values were obtained:
Assay type in all cases: functional
Escherichia coli [1] = assay: In vitro antibacterial activity agains Escherichia coli 1852
Streptococcus pneumoniae = assay: In vitro antibacterial activity against Streptococcus pneumoniae 3512
Clostridium perfringens = assay: In vitro antibacterial activity against Clostridium perfringens 615
Escherichia coli [2] = assay: In vitro antibacterial activity against Escherichia coli 1850
Enterococcus faecalis = assay: In vitro antibacterial activity against Enterococcus faecalis 850
Staphylococcus aureus = assay: In vitro antibacterial activity against Staphylococcus aureus 853
Bacteroides fragilis = assay: In vitro antibacterial activity against Bacteroides fragilis 2017
Escherichia coli [3] = assay: In vitro antibacterial activity against Escherichia coli 1850.

| Compound | MIC (Escherichia coli [1]) | MIC (Streptococcus pneumoniae) | MIC (Clostridium perfringens) | MIC (Escherichia coli [2]) | MIC (Enterococcus faecalis) | MIC (Staphylococcus aureus) | MIC (Bacteroides fragilis) | MIC (Escherichia coli [3]) |
| --- | --- | --- | --- | --- | --- | --- | --- | --- |
| C[C@@H](O)[C@H]1C(=O)N2C(C(=O)[O-])=C3COCC[C@H]3[C@H]12.[K+] | 4 µg/mL | 0.1 µg/mL | 2 µg/mL | 2 µg/mL | 32 µg/mL | 2 µg/mL | 0.1 µg/mL |  |
| C[C@@H](O)[C@H]1C(=O)N2C(C(=O)[O-])=C3CCCC[C@@H]3[C@H]12.[K+] | 1 µg/mL | 0.06 µg/mL | 0.1 µg/mL | 1 µg/mL | 8 µg/mL | 1 µg/mL | 1 µg/mL |  |
| C[C@@H](O)[C@H]1C(=O)N2C(C(=O)[O-])=C3CCCO[C@@H]3[C@H]12.[K+] | 1 µg/mL | 0.06 µg/mL | 0.06 µg/mL | 1 µg/mL | 1 µg/mL | 0.5 µg/mL | 0.1 µg/mL |  |
| CO[C@H]1CCC[C@H]2C1=C(C(=O)O)N1C(=O)[C@H]([C@@H](C)O)[C@@H]21 [SANFETRINEM] | 0.5 µg/mL (≈ 1.78 µM) | < 0.01 µg/mL | 0.03 µg/mL (≈ 0.107 µM) | 0.5 µg/mL (≈ 1.78 µM) | 1 µg/mL (≈ 3.55 µM) | 0.2 µg/mL (≈ 0.711 µM) | 0.06 µg/mL (≈ 0.213 µM) |  |
| C[C@@H](O)[C@H]1C(=O)N2C(C(=O)[O-])=C3CCCC[C@H]3[C@H]12.[K+] | 2 µg/mL | 0.5 µg/mL | 1 µg/mL |  | 16 µg/mL | 1 µg/mL | 0.5 µg/mL | 2 µg/mL |
| C[C@@H](O)[C@H]1C(=O)N2C(C(=O)[O-])=C3CCCO[C@H]3[C@H]12.[K+] | 4 µg/mL | 0.2 µg/mL | 1 µg/mL | 2 µg/mL | 16 µg/mL | 1 µg/mL | 0.2 µg/mL |  |
| C[C@@H](O)[C@H]1C(=O)N2C(C(=O)[O-])=C3COCC[C@@H]3[C@H]12.[K+] | 0.5 µg/mL | 0.06 µg/mL | 0.5 µg/mL | 0.5 µg/mL | 8 µg/mL | 0.5 µg/mL | 0.2 µg/mL |  |

Reference: ChEMBL document CHEMBL1129696, “5- and 7-oxa trinems: their synthesis and biological evaluation” (1996)
